Several values for one entry are separate records, joined by “and”; a condition that tells them apart may be missing. Equal entries are not always repeated. Entries after “also recorded” stand apart in the source; their conditions may differ.
B1: MAP30: Momordica Anti-HIV Protein 30 kDa, native full-length, SEQ ID NO:1, from bitter melon (protein, listed as Momordica charantia)
chain: DVNFDLSTATAKTYTKFIEDFRATLPFSHKVYDIPLLYSTISDSRRFILLDLTSYAYETISVAIDVTNVYVVAYRTRDVSYFFKESPPEAYNILFKGTRKITLPYTGNYENLQTAAHKIRENIDLGLPALSSAITTLFYYNAQSAPSALLVLIQTTAEAARFKYIERHVAKYVATNFKPNLAIISLENQWSALSKQIFLAQNQGGKFRNPVDLIKPTGERFQVTNVDSDVVKGNIKLLLNSRASTADENFITTMTLLGESVVN

How the values were obtained:
[1] = tested on: endoproteinase Lys-C and Glu-C (V8); assay: Resistance to limited proteolysis with Lys-C and V8 (SDS-PAGE); details: Lys-C or V8, up to 24 hr
Procedure: MAP30 and GAP31 were subjected to proteolysis with sequencing grade endoproteinase Lys-C and Glu-C (Promega, Madison, Wis.). Lys-C cleaves at the carboxylic side of lysine (Elliott et al., 1986). Glu-C, also known as V8 protease, cleaves specifically at the carboxylic side of glutamic acid in the presence of ammonium ion (Drapeau et al., 1972). In the absence of ammonium ion, Glu-C acts at both aspartic and glutamic acids. The reaction buffers for Lys-C and V8 were 25 mM Tris-HCl, pH 7.8, 1 mM EDTA and 50 mM ammonium bicarbonate, pH 7.8 respectively.
FIGS. 1A-1D show time course SDS-PAGE patterns of Lys-C and V8 digestions of MAP30 and GAP31. Three major fragments were produced in each case. These fragments are designated MLF25, MLF21, MLF0.8 (MAP30 Lys-C Fragments of 25, 21, and 0.8 kDa, FIG. 1A), MVF25, MVF21, MVF0.8 (MAP30 V8 Fragments of 25, 21, and 0.8 kDa, FIG. 1B), GLF26, GLF22, GLF0.6 (GAP31 Lys-C Fragments of 26, 22 and 0.6 kDa, FIG. 1C), and GVF26, GVF22, GVF0.6 (GAP31 V8 Fragments of 26, 22 and 0.6 kDa, FIG. 1D). The smaller peptides are C-terminal fragments produced during proteolysis and they are sensitive to further digestion to short peptides.

human spermatozoa [2] = assay: Sperm motility by counting; format: cell-based; details: for effect on sperm motility at the antiviral EC100 concentrations: 0.01 to 0.1 μg/ml; for spermicidal activity / motility inhibition over the entire concentration ranges tested: 0.1 to 100 μg/ml
Procedure: Ten semen samples were randomly obtained form ten donors at the Andrology laboratory of the Department of Obstetrics and Gynecology at NYU Medical Center. All specimens were normal semen samples according to WHO guidelines. Each sample consisted of greater than or equal to 20 million motile sperm per milliliter. Sperm count and motility were determined by placing the sperm on a hackler chamber and assessing the samples under a 40× power microscopic field.
Each semen sample was washed two consecutive times in Ham's F-10 media. The washed sperm was spun to a pellet and then re-suspended in media to a concentration of 40 million spermatocytes per milliliter with at least 50% motility. Five microliters of sperm were then suspended in 100 microliters each of PBS, serial 10-fold dilutions of MAP30, or GAP31 or N-9 from 100 to 0.1 microg/ml. N-9 was used as a positive control. Motility and forward progression were assessed at each log concentration of the three compounds. The exposure time ranged form five minute to two hours.

HSV-2 = assay: Anti-HSV assay by ELISA in WI-38 cells; format: cell-based
Procedure: Anti-HSV activity was assayed with HSV-2 by ELISA (Meridian Diagnostics, Inc., Cincinnati, Ohio) as reported previously (Bourinbaiar et al (1996)). Human embryonic lung fibroblast cell line WI-38, (CCL-75, from ATCC, Rockville, Md.) was used as target cells. HSV-2 (VR-734, strain G) derived from a human with the genital infection was obtained from ATCC, Rockville, Md.

human spermatozoa [3] = assay: Sperm vitality by eosin Y/nigrosine staining; format: cell-based; details: vital stain
Procedure: The vitality staining was carried out by adding two drops of eosin Y to one drop of sperm sample and mixing for ten seconds. Two drops of nigrosine were then added to this mixture, and the solutions as mixed for 30 seconds. Slides were made from one drop of each solution mixed with MAP30, or GAP31, or N-9.

HIV-1(IIIB) = assay: Anti-HIV assay: p24 expression in HIV-infected MT-4 T lymphocytes; format: cell-based; details: for EC50 / EC50 anti-HIV, p24 / EC100 anti-HIV, p24 (complete inhibition of HIV-1) / EC100 anti-HIV, p24 (molar): HIV-1 infected MT4 lymphocytes; for fold more potent than N-9 in terms of molar concentration at EC50 / fold more potent than N-9 in terms of weight per volume: anti-HIV p24, MT4; for concentration of complete inhibition of p24 expression (FIG. 9): p24 ELISA of HIV-infected MT4 culture supernatant
Procedure: Anti-HIV activity was assayed by inhibition on viral core protein, p24 expression in HIV-infected MT-4 T lymphocytes by RIA as described previously (World Health Organization (1992); Bourinbaiar et al (1995)). Briefly, the cells were plated in duplicated in 96-well microtiter plates at 1×10^5 cells/ml in the presence of serial 10-fold dilution of MAP30, or GAP31 or NP-9 at concentrations from […]. The cells were then infected with HIV-1(IIIB) at 100 infectious units per cell. The culture supernatants were collected on day 3 and were used for p24 assay using ELISA kit from Coulter (Hialeah, Fla.). Duplicates of original viral inoculum in the same volume of the medium without the target cells and incubated for 3 days were used as blanks. The blank values were subtracted from wells in which virus was propagated in host MT4 cells with or without drugs.

| Molecule | resistance to proteolysis [1] | inhibition of sperm motility at 100 μg/ml (human spermatozoa [2]) | effect on sperm motility at the antiviral EC100 concentrations (human spermatozoa [2]) | spermicidal activity / motility inhibition over the entire concentration ranges tested (human spermatozoa [2]) | EC100 for HSV-2 (complete inhibition) (HSV-2) [µg/mL] | sperm vitality after treatment (human spermatozoa [3]) | EC50 (HIV-1(IIIB)) [nM] | EC50 anti-HIV, p24 (HIV-1(IIIB)) [µg/mL] | EC100 anti-HIV, p24 (complete inhibition of HIV-1) (HIV-1(IIIB)) | EC100 anti-HIV, p24 (molar) (HIV-1(IIIB)) [nM] | fold more potent than N-9 in terms of molar concentration at EC50 (HIV-1(IIIB)) | fold more potent than N-9 in terms of weight per volume (HIV-1(IIIB)) | concentration of complete inhibition of p24 expression (FIG. 9) (HIV-1(IIIB)) [microgram/ml] | concentration of complete inhibition of sperm motility (FIG. 7) (human spermatozoa [2]) [micrograms/ml] | inhibition in motility at 10 μg/ml (human spermatozoa [2]; 10 μg/ml, relative to PBS as 100% motility, mean ± SEM) [%] | EC50 spermicidal activity (human spermatozoa [2]; 50% inhibition of sperm motility) [µg/mL] | EC100 spermicidal activity (human spermatozoa [2]; 100% inhibition of sperm motility) [µg/mL] | inhibition on sperm motility at the antiviral EC100 concentrations (human spermatozoa [2]; N-9 at 10 μg/ml and 50 μg/ml) [%] |
| --- | --- | --- | --- | --- | --- | --- | --- | --- | --- | --- | --- | --- | --- | --- | --- | --- | --- | --- |
| GAP31: Gelonium Anti-HIV Protein 31 kDa, native full-length, SEQ ID NO:2, from Gelonium multiflorum | no proteolysis was detected up to 24 hr of treatment even at as much as 5% (W/W) of enzyme | only marginal effect | no significant effect on sperm motility | little spermicidal activity; also recorded: little inhibition | 0.1 | remained vital and impermeable to the pink dye; also recorded: not toxic to the spermatozoa | 0.3 | 0.001 | 0.1 µg/mL | 3.3 | about 540 fold | about 100 fold | 0.1 | – | – | – | – | – |
| Nonoxynol-9 [Fragment N-9, reference compound] | – | totally inhibited | – | – | 50 | potent spermicidal effect; also recorded: all sperm wimples were dead | 162 | 0.1 | 10 µg/mL | 16200 | – | – | 10 | 100 | 43±5 | 20 | 100 | 50 to 80 |
| B1 | no proteolysis was detected up to 24 hr of treatment even at as much as 5% (W/W) of enzyme | only marginal effect | no significant effect on sperm motility | little spermicidal activity; also recorded: little inhibition | 0.01 | remained vital and impermeable to the pink dye; also recorded: Identical results | 0.3 | 0.001 | 0.1 µg/mL and 0.08 µg/mL | 3.3 | about 540 fold | about 100 fold | 0.1 | – | – | – | – | – |
